US20060160070A1, “Association-based epitome design” (Microsoft Corporation, priority 2004, published 2006)

Experiments:
HLA A*2402 [1] = target: T1, HLA A*2402 (Homo sapiens, UniProt P04439, D101N/D140Y/D185E/E176V/E190D/F33S/G103R/G107R/I119L/I121M/I306V/K335N/L105A/L180Q/L300P/N151K/N90K/Q86E/Q94H/R106L/R138H/R89G/T104I/T345S/V100E/W191G/Y123F); experiment: Multi-parametric analysis iScore; format: binding; parameters: scale not given here; conditions: index integrating t1/2 and ED50
Description: (§1) Multi-parametric analysis was performed to integrate the half-life (t½) and ED50 parameters in an index (iScore). The iScore (Table 13) reflects the capability of a peptide to reconstitute with MHC molecules in a stable complex, defining its overall level of binding.

HLA B*0801 [2] = target: T2, HLA B*0801 (Homo sapiens, UniProt P01889, A93T/A95T/D138N/E176V/E187T/K202T/Q94N/R180D/S35A/V36M/Y33D/Y91F); experiment: Multi-parametric analysis iScore; format: binding; parameters: scale not given here; conditions: index integrating t1/2 and ED50
T2 construct: purchased
Description: as §1

HLA A*0201 [3] = target: T3, HLA A*0201 (Homo sapiens, UniProt P04439, D140Y/D185E/D98H/E176V/E277Q/G131W/G231S/I119V/I121R/I166T/I218V/L300P/L318F/N151K/N90K/P208A/P217A/Q86G/Q94H/R138H/R169H/T345S); experiment: Multi-parametric analysis iScore; format: binding; parameters: scale not given here; conditions: index integrating t1/2 and ED50
Description: as §1

HLA A*0101 [4] = target: T4, HLA A*0101 (Homo sapiens, UniProt P04439, A114D/A174V/A182V/D101N/D185E/E176A/E190D/L180R/Q94H/R68K/S129P/T187R/V100A/V91M/W191G); experiment: Multi-parametric analysis iScore; format: binding; parameters: scale not given here; conditions: index integrating t1/2 and ED50
T4 construct: purchased
Description: as §1

HLA A*1101 [5] = target: T5, HLA A*1101 (Homo sapiens, UniProt P04439, A114D/D185E/E176A/F33Y/L180Q/S129P/T187R); experiment: Multi-parametric analysis iScore; format: binding; parameters: scale not given here; conditions: index integrating t1/2 and ED50
T5 construct: purchased
Description: as §1

HLA A*0301 [6] = target: T6, HLA A*0301 (Homo sapiens, UniProt P04439); experiment: Multi-parametric analysis iScore; format: binding; parameters: scale not given here; conditions: index integrating t1/2 and ED50
T6 construct: purchased
Description: as §1

HLA B*0702 [7] = target: T7, HLA B*0702 (Homo sapiens, UniProt P01889); experiment: Multi-parametric analysis iScore; format: binding; parameters: scale not given here; conditions: index integrating t1/2 and ED50
T7 construct: purchased
Description: as §1

HLA B*1501 [8] = target: T8, HLA B*1501 (Homo sapiens, UniProt P01889, A329T/A93T/A95T/C349S/D201E/D98Y/E187L/E204Q/E69M/E70A/K202T/N87E/Q94N/R155S/R180W/S121R/S35A/S48A/V306I/V36M/Y140S/Y91S); experiment: Multi-parametric analysis iScore; format: binding; parameters: scale not given here; conditions: index integrating t1/2 and ED50
T8 construct: purchased
Description: as §1

HLA A*2402 [9] = target: T1, HLA A*2402; experiment: ITOPIA peptide binding assay; conditions: 1.11×10^−4M of peptide
Description: (§2) Peptide binding, off-rate and affinity were measured according to the protocols described in the ITOPIA Epitope Discovery System Customer Guide. To conduct the experiments, ninety-six (96) micro-titer plates coated with MHC molecules representing the HLA alleles listed in Table 9 were used to identify candidate peptides. Determinations were performed in duplicate using an ELISA plate reader. The peptide binding assay used measures the ability of individual peptides to bind to the HLA molecules under standardized optimal binding conditions. The assay was performed for all the test peptides across the selected HLA alleles. The test peptides identified as “binders” were characterized further in terms of affinity and dissociation experiments. The off-rate assay used evaluates the dissociation of previously bound peptide at defined time points (expressed as the t1/2 value). The affinity assay used measures the relative binding affinities for the MHC molecules determined by incubating candidate peptides identified in the initial peptide binding assay at increasing concentrations (expressed as quantity of peptide needed to achieve 50% binding or ED50 value).
(§3) The binding of the test peptides (Table 8) to the HLA molecules (Table 9) was performed at a concentration of 1.11×10^−4M of peptide under optimal, standardized test conditions. A control peptide was run in parallel on the same plate and at the same concentration as the test peptides. […] The level of binding is expressed as a percent of positive control peptide binding for each allele.

HLA B*0801 [10] = target: T2, HLA B*0801; experiment: ITOPIA peptide binding assay; conditions: 1.11×10^−4M of peptide
Description: as §2, §3

HLA A*0201 [11] = target: T3, HLA A*0201; experiment: ITOPIA peptide binding assay; conditions: 1.11×10^−4M of peptide
Description: as §2, §3

HLA A*0101 [12] = target: T4, HLA A*0101; experiment: ITOPIA peptide binding assay; conditions: 1.11×10^−4M of peptide
Description: as §2, §3

HLA A*1101 [13] = target: T5, HLA A*1101; experiment: ITOPIA peptide binding assay; conditions: 1.11×10^−4M of peptide
Description: as §2, §3

HLA A*0301 [14] = target: T6, HLA A*0301; experiment: ITOPIA peptide binding assay; conditions: 1.11×10^−4M of peptide
Description: as §2, §3

HLA B*0702 [15] = target: T7, HLA B*0702; experiment: ITOPIA peptide binding assay; conditions: 1.11×10^−4M of peptide
Description: as §2, §3

HLA B*1501 [16] = target: T8, HLA B*1501; experiment: ITOPIA peptide binding assay; conditions: 1.11×10^−4M of peptide
Description: as §2, §3

HLA A*0201 [17] = target: T3, HLA A*0201; experiment: ITOPIA off-rate assay; format: binding; conditions: 37° C., one-phase exponential decay
Description: as §2
(§4) The peptides initially identified as binders were evaluated for stability based on their ability to remain bound to MHC molecules at 37° C. at time points 0, 0.5, 1, 1.5, 2, 4, 6 and 8 hours. […] The values obtained for each time point (in duplicate) are expressed (Table 11) as a percentage of the positive control. To calculate the t1/2 and goodness-of-fit, as measured by r^2, for each peptide, a one-phase exponential decay curve, with a plateau given equal to 0, was generated using […] PRISM software.

HLA A*1101 [18] = target: T5, HLA A*1101; experiment: ITOPIA off-rate assay; format: binding; conditions: 37° C., one-phase exponential decay
Description: as §2, §4

HLA A*0301 [19] = target: T6, HLA A*0301; experiment: ITOPIA off-rate assay; format: binding; conditions: 37° C., one-phase exponential decay
Description: as §2, §4

HLA A*2402 [20] = target: T1, HLA A*2402; experiment: ITOPIA off-rate assay; format: binding; conditions: 37° C., one-phase exponential decay
Description: as §2, §4

HLA B*0801 [21] = target: T2, HLA B*0801; experiment: ITOPIA off-rate assay; format: binding; conditions: 37° C., one-phase exponential decay
Description: as §2, §4

HLA B*0702 [22] = target: T7, HLA B*0702; experiment: ITOPIA off-rate assay; format: binding; conditions: 37° C., one-phase exponential decay
Description: as §2, §4

HLA B*1501 [23] = target: T8, HLA B*1501; experiment: ITOPIA off-rate assay; format: binding; conditions: 37° C., one-phase exponential decay
Description: as §2, §4

target cells = conditions: in vitro; compared with consensus epitope; cited from earlier work

Row | Sequence | iScore (HLA A*2402 [1]) | iScore (HLA B*0801 [2]) | iScore (HLA A*0201 [3]) | iScore (HLA A*0101 [4]) | iScore (HLA A*1101 [5]) | iScore (HLA A*0301 [6]) | iScore (HLA B*0702 [7]) | iScore (HLA B*1501 [8]) | level of binding, percent of positive control peptide binding (HLA A*2402 [9]) | level of binding, percent of positive control peptide binding (HLA B*0801 [10]) | level of binding, percent of positive control peptide binding (HLA A*0201 [11]) | level of binding, percent of positive control peptide binding (HLA A*0101 [12]) | level of binding, percent of positive control peptide binding (HLA A*1101 [13]) | level of binding, percent of positive control peptide binding (HLA A*0301 [14]) | level of binding, percent of positive control peptide binding (HLA B*0702 [15]) | level of binding, percent of positive control peptide binding (HLA B*1501 [16]) | A*0201 t1/2 (HLA A*0201 [17]) [h] | A*1101 t1/2 (HLA A*1101 [18]) [h] | B*0801 t1/2 (HLA B*0801 [21]) [h] | B*0702 t1/2 (HLA B*0702 [22]) [h] | further results
1 | KLAGRWPVK [compound 71] | 0 | 0 | 0.084 | 0 | 0.834 | 0.606 | 0 | 0 | 11% of positive control | 4% of positive control | 26% of positive control | 0% of positive control | 160% of positive control | 114% of positive control | 0% of positive control | 2% of positive control | 1.3 | 2.6 | – | – | A*0301 t1/2 (HLA A*0301 [19]): 4.6 h
2 | KLAGRWPVT [compound 157] | 0 | 0 | 0.129 | 0 | 0.039 | 0 | 0 | 0 | 8% of positive control | 4% of positive control | 51% of positive control | 2% of positive control | 19% of positive control | 9% of positive control | 3% of positive control | 6% of positive control | 1.1 | 1.6 | – | – | –
3 | RGRQKVVSI [compound 153] | 0.050 | 0.165 | 0 | 0 | 0 | 0 | 0.271 | 0 | 29% of positive control | 71% of positive control | 6% of positive control | 0% of positive control | 6% of positive control | 0% of positive control | 88% of positive control | 7% of positive control | – | – | 1.2 | 1.3 | A*2402 t1/2 (HLA A*2402 [20]): 1.8 h
4 | RGRQKVVSL [compound 68] | 0 | 0.100 | 0 | 0 | 0 | 0 | 0.307 | 0.106 | 17% of positive control | 73% of positive control | 5% of positive control | 0% of positive control | 0% of positive control | 0% of positive control | 96% of positive control | 55% of positive control | – | – | 1.2 | 1.1 | B*1501 t1/2 (HLA B*1501 [23]): 3.5 h
5 | TAFTIPST | – | – | – | – | – | – | – | – | – | – | – | – | – | – | – | – | – | – | – | – | increase in the peptide concentration required to sensitize target cells for 50% lysis (SD50) by CTLs (target cells): hundred-fold increase
